How the values were obtained:
[1] = Bioavailability in rhesus monkey at 10 mg/kg; format: ADME, organism-based, Macaca mulatta; details: in vivo
[2] = Inhibition of L-type calcium channel at 30 uM
PXR (NR1I2) = molecular target: T1, PXR (NR1I2) (Homo sapiens, UniProt O75469); experiment: Activity at PXR at 10 uM relative to rifampicin; details: read-out: Activity
T1 sequence (O75469 whole entry): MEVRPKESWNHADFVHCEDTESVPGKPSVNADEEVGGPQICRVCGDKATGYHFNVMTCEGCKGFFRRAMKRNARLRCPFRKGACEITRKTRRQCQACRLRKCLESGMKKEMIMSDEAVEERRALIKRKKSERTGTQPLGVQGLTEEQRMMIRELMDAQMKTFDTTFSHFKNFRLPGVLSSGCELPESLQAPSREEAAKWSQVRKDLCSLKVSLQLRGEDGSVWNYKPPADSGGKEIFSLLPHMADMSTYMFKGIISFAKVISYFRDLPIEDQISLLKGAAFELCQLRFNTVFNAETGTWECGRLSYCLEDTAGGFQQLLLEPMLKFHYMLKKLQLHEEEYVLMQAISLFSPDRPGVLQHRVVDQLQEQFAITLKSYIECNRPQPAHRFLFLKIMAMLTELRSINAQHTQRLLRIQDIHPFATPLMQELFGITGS

[3] = Half life in rhesus monkey at 10 mg/kg; format: ADME, organism-based, Macaca mulatta; design: dose 10 mg/kg; details: in vivo
[4] = Ratio of IC50 for hyperpolarized T-type calcium channel to IC50 for depolarized T-type calcium channel
[5] = Apparent terminal half life in human at 20 mg, po; format: ADME, organism-based; details: in vivo, read-out: betat1/2(app) (converted)
[6] = Half life in dog at 10 mg/kg; format: ADME, organism-based, Canis lupus familiaris; design: dose 10 mg/kg; details: in vivo
[7] = Antagonist activity at L-type calcium channel by FLIPR assay; format: functional
[8] = Bioavailability in dog at 10 mg/kg; format: ADME, organism-based, Canis lupus familiaris; details: in vivo
[9] = Systemic clearance in rat at 10 mg/kg; format: ADME, organism-based; design: dose 10 mg/kg; details: in vivo
[10] = molecular target: Voltage-gated inwardly rectifying potassium channel KCNH2 (Homo sapiens, UniProt Q12809); experiment: Displacement of […] from human ERG in HEK293 cells; format: cell-based
Chain of Voltage-gated inwardly rectifying potassium channel KCNH2 (Q12809 whole entry): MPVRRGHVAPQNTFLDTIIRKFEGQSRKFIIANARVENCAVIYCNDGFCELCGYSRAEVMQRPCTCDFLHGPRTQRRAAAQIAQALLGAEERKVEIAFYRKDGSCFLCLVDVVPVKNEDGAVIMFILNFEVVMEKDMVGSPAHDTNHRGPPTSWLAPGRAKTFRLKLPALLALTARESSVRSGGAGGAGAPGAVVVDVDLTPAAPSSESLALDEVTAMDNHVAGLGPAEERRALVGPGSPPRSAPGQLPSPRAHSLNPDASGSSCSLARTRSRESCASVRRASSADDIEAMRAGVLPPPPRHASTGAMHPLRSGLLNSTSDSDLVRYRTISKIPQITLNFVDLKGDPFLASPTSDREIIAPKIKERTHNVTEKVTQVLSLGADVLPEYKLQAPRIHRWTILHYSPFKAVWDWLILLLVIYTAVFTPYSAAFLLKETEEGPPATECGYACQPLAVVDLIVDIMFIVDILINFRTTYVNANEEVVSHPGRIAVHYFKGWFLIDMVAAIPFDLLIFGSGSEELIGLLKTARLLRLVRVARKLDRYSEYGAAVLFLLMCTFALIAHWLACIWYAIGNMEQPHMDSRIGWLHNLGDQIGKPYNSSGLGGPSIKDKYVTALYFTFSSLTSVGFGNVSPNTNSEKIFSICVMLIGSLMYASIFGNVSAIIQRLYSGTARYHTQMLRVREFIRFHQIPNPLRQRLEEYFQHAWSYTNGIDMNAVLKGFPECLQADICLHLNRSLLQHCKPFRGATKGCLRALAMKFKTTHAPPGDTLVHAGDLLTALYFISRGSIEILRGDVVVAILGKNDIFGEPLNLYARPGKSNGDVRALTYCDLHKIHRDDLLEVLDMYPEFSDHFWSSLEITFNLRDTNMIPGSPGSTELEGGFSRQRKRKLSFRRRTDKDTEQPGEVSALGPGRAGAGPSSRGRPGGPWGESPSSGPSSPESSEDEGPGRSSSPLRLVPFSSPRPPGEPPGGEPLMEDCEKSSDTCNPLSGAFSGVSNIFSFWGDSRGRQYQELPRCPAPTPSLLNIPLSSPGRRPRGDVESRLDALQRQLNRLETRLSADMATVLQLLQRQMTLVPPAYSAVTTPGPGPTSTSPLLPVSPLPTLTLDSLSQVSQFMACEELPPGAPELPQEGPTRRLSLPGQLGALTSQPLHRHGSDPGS

Rattus norvegicus [11] = experiment: Anticonvulsant activity in WAG/Rij rat assessed as inhibition of seizure at 3 mg/kg, po measured after 4 hrs; format: functional
[12] = Cmax in human at 20 mg, po; format: ADME, organism-based; design: dose 20 mg, route oral; details: in vivo
[13] = molecular target: T2, Voltage-dependent T-type calcium channel subunit alpha-1I (Homo sapiens, UniProt Q9P0X4); experiment: Antagonist activity at Cav3.3 at -80 mV holding potential by whole cell patch clamp analysis; format: functional
T2 sequence (Q9P0X4 whole entry): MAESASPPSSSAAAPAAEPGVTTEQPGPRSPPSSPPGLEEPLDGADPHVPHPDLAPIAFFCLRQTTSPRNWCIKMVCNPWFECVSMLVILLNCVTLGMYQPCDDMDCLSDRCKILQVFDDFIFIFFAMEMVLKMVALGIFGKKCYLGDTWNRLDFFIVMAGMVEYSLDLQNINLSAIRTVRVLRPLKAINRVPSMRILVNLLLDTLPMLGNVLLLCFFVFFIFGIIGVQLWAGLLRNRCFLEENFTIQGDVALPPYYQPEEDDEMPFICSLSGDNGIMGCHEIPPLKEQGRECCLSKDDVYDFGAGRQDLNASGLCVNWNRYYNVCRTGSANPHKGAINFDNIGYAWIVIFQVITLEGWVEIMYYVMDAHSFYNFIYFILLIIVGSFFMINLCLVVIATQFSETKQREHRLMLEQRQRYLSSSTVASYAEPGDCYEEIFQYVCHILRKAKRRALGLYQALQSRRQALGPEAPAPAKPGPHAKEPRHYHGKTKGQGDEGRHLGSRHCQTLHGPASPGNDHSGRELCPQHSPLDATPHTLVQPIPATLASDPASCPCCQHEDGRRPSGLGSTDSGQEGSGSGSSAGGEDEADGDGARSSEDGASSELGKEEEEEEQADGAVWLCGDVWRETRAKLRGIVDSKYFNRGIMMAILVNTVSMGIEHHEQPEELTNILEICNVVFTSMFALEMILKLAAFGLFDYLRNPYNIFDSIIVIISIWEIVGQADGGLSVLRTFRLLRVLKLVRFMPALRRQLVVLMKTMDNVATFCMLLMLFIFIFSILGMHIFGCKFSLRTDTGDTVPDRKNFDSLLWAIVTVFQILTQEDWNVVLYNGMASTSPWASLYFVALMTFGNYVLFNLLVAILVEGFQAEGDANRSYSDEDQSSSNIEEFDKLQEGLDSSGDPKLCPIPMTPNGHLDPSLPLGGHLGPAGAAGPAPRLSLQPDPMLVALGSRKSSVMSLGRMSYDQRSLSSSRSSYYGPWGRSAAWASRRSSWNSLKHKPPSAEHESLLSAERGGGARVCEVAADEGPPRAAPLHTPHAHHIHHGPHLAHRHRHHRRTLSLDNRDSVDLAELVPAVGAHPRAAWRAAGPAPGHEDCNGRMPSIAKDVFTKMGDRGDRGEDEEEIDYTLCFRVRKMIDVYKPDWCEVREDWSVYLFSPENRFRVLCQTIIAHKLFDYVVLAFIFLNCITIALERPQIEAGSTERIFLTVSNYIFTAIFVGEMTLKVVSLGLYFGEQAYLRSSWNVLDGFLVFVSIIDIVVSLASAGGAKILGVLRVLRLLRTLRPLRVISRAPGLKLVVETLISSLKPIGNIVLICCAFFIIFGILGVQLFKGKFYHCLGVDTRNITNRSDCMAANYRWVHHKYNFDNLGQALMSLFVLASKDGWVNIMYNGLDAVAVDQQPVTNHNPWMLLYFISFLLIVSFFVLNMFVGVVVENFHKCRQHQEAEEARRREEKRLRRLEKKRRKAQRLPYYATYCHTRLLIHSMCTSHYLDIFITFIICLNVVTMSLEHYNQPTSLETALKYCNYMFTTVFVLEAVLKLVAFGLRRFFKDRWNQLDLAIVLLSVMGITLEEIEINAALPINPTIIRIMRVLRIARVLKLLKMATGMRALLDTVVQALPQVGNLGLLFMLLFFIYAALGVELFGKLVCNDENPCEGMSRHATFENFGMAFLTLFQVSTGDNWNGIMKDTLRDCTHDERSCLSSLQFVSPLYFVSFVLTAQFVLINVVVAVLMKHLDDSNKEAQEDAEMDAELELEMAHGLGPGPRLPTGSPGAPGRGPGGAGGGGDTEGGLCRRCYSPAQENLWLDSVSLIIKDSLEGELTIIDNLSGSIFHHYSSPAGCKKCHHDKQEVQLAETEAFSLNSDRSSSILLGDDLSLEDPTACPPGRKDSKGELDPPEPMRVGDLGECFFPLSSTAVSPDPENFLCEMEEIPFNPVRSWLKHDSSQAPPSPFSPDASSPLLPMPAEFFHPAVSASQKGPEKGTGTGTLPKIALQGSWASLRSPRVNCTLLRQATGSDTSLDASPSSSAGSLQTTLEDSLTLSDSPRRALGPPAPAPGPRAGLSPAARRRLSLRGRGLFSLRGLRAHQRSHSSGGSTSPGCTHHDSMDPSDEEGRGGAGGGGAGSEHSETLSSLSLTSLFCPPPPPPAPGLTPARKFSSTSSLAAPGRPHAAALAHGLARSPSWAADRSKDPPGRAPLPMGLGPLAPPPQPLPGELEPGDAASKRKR

[14] = Volume of distribution at steady state in dog at 10 mg/kg; format: ADME, organism-based, Canis lupus familiaris; design: dose 10 mg/kg; details: in vivo, read-out: Vdss
[15] = molecular target: Voltage-gated potassium channel, IKs; KCNQ1(Kv7.1)/KCNE1(MinK) (Homo sapiens, UniProt P51787+P15382); experiment: Inhibition of IKs; format: protein-complex assay
[16] = Half life in rat at 5 mg/kg, po; format: ADME, organism-based; design: dose 5 mg/kg, route oral; details: in vivo
[17] = Systemic clearance in dog at 10 mg/kg; format: ADME, organism-based, Canis lupus familiaris; design: dose 10 mg/kg; details: in vivo
[18] = Bioavailability in rat at 10 mg/kg; format: ADME, organism-based; details: in vivo
[19] = Volume of distribution at steady state in rhesus monkey at 10 mg/kg; format: ADME, organism-based, Macaca mulatta; design: dose 10 mg/kg; details: in vivo, read-out: Vdss
[20] = Volume of distribution at steady state in rat at 10 mg/kg; format: ADME, organism-based; design: dose 10 mg/kg; details: in vivo, read-out: Vdss
[21] = Plasma protein binding in rat assessed as fraction unbound at 5 uM; format: ADME, cell-free
[22] = Inhibition of Sodium channel; details: concentration not given here
Rattus norvegicus [23] = experiment: Effect on sleep wake cycle in po dosed rat assessed as increase in delta sleep administered daily 30 mins before inactive phase measured 0.5 to 2 hrs post administration; format: functional, organism-based
hERG (KCNH2) = hERG (KCNH2) (Homo sapiens, UniProt Q12809); experiment: Inhibition of human ERG at 30 uM
Chain of hERG (KCNH2) (Q12809 whole entry): as the sequence (Q12809 whole entry) above

[24] = Half life in rat at 10 mg/kg; format: ADME, organism-based; design: dose 10 mg/kg; details: in vivo
[25] = Plasma protein binding in human assessed as fraction unbound at 5 uM; format: ADME, cell-free
Liver microsomes [26] = experiment: Covalent protein binding in human liver microsomes assessed per mg protein at 10 uM after 60 mins in presence of NADPH by NMR spectroscopy; format: ADME, Microsome; details: 1 h
[27] = Plasma protein binding in rhesus monkey assessed as fraction unbound at 5 uM; format: ADME, Macaca mulatta
[28] = Antagonist activity at hyperpolarized T-type calcium channel by FLIPR assay; format: functional
[29] = Systemic clearance in rhesus monkey at 10 mg/kg; format: ADME, organism-based, Macaca mulatta; design: dose 10 mg/kg; details: in vivo
[30] = Plasma protein binding in dog assessed as fraction unbound at 5 uM; format: ADME, cell-free, Canis lupus familiaris
[31] = molecular target: T2, Voltage-dependent T-type calcium channel subunit alpha-1I; experiment: Antagonist activity at Cav3.3 at -100 mV holding potential by whole cell patch clamp analysis; format: functional
[32] = Antagonist activity at depolarized T-type calcium channel by FLIPR assay; format: functional
LLC-PK1 = experiment: Ratio of permeability from basolateral to apical side to apical to basolateral side of pig LLC-PK1 cells expressing P-gp; format: ADME, cell-based, Sus scrofa
Rattus norvegicus [33] = experiment: Effect on sleep wake cycle in rat assessed as suppression of active wake time at 5 mg/kg, po administered daily 30 mins before inactive phase; format: functional
[34] = Binding affinity to T-type calcium channel
P-gp = experiment: Permeability across pig LLC-PK1 cells expressing P-gp; format: ADME, cell-based, Sus scrofa
Liver microsomes [35] = experiment: Covalent protein binding in human liver microsomes assessed as GSH adduct formation measured per mg protein at 10 uM after 60 mins in presence of NADPH by NMR spectroscopy; format: ADME, Microsome; details: 1 h

Row | SMILES | activity at 10 µM (PXR (NR1I2)) [%] | Ratio IC50 [4] | half-life [6] [min] | IC50 [7] [µM] | bioavailability [8] [%] | clearance [9] [L/h/kg] | IC50 [10] [µM] | inhibition in vivo at 3 mg/kg (Rattus norvegicus [11]) [%] | Vd [14] [L/kg] | clearance [17] [L/h/kg] | bioavailability [18] [%] | Vd [20] [L/kg] | fraction unbound at 5 µM [21] | half-life [24] [min] | IC50 [28] [µM] | fraction unbound at 5 µM [30] | IC50 [32] [µM] | Ratio (LLC-PK1) | Ki [34] [µM] | Papp (P-gp) [nm/s] | further results
1 | Cc1nccnc1-c1ccc(CC(=O)N[C@H](C)c2ccc(OCC(F)(F)F)cn2)cc1 | 8 | > 80 | 48.6 | > 10 | 23 | 1.82 | > 30 | 87 | 0.36 | 0.708 | 71 | 0.59 | 0.123 | 14.4 | 1.92 | 0.155 | 0.0313 | 1.3 | 0.0055 | 440 | bioavailability [1]: 5%; inhibition [2]: 12%; half-life [3]: 31.8 min; half-life [5]: 180 min; Cmax [12]: 1.82 µM; IC50 [13]: 0.264 µM; inhibition (INH) [15]: Not Active; half-life [16]: 14 min; Vd [19]: 0.74 L/kg; inhibition [22]: 20%; Activity (Rattus norvegicus [23]): Dose-dependent effect; inhibition at 30 µM (hERG (KCNH2)): 41%; fraction unbound at 5 µM [25]: 0.032; PB (Liver microsomes [26]): 8 pmol; fraction unbound at 5 µM [27]: 0.146; clearance [29]: 1.16 L/h/kg; IC50 [31]: 12 µM; Time (Rattus norvegicus [33]): 1.5 h
2 | C[C@@H](NC(=O)Cc1ccc(-c2cnn3ncccc23)cc1)c1ccc(OCC(F)(F)F)cn1 | 0 | > 80 | – | > 10 | – | – | > 30 | 85 | – | – | – | – | – | – | 0.397 | – | 0.0054 | 1.3 | – | 380 | PB (Liver microsomes [35]): 244 pmol
3 | C[C@@H](NC(=O)Cc1ccc(N2CC[C@H](F)C2)cc1)c1ccc(OCC(F)(F)F)cn1 | 31 | – | – | > 10 | – | – | – | – | – | – | – | – | – | – | 0.249 | – | 0.0037 | – | 0.0003 | 410 | –
4 | Cc1ncoc1-c1ccc(CC(=O)N[C@H](C)c2ccc(OCC(F)(F)F)cn2)cc1 | 7 | > 80 | 66 | > 10 | 50 | 2.1 | > 30 | 72 | 0.3 | 0.216 | 100 | 1.1 | 0.052 | 24 | 0.206 | 0.016 | 0.0053 | 1.1 | 0.0002 | 350 | PB (Liver microsomes [35]): 1558 pmol
5 | C[C@@H](NC(=O)Cc1ccc(C2CC2)cc1)c1ccc(OCC(F)(F)F)cn1 | 17 | > 80 | – | > 10 | – | – | > 10 | 87 | – | – | – | – | – | – | 0.384 | – | 0.0094 | 0.7 | 0.0012 | 450 | –

Source: ChEMBL document CHEMBL2150960 (ACS Med Chem Lett, 2010)
